Experimental data as given in patent US11092602B2, “Methods and compositions relating to proteasome inhibitor resistance” (Whitehead Institute for Biomedical Research, priority 2015, dated 2021).
“Also recorded” adds a separate entry of the source. Residues, ends and D or L forms follow the SMILES beside them. *: point of attachment. Cbz = O=C(OCc1ccccc1)*

Columns and labels:
T47D cells [1] = assay: Selleck anti-cancer compound library screen, PSMD2 KD versus control T47D cells (resazurin); type: cell-based, human; settings: 4 concentrations, 72 hours
Method: After 48 hours the cells were collected, counted, and plated at 1000 cells/well in 384 well plates in duplicates for each cell line. Compounds from the Selleck Chemicals anti-cancer compound library β49 drugs in 4 concentrations; […]) were pinned the next day and viability was measured after 72 hours by the reduction of Resazurin (Ex=530 nm, Em=590 nm).
The effect of each drug on viability of cells was calculated by averaging the duplicate experiments. The data is plotted in FIG. 16 as the log2 of the ratio of viability of PSMD2 KD versus control cells (log2 (shPSMD2/Control)).

IMR32 and Kelly cells [2] = assay: CellTiter-Glo viability of IMR32 and Kelly neuroblastoma cells; type: cell-based; settings: 72 hours
Method: IMR32 and Kelly cells were each cultured in the presence of bortezomib at concentrations ranging from 0.001 um to 0.100 um. […] The fold viability relative to culture in the absence of bortezomib was determined for each cell line.
The fold viability relative to culture in the absence of the compound was determined for each cell line.

T47D cells [3] = assay: Competition co-culture of shPSMD2-RFP and shControl-GFP T47D cells, FACS and microscopy; type: cell-based, human; settings: 1:10 plating ratio; concentration-dependent
Method: We created two cell lines—one line that expresses red fluorescent protein (turboRFP) and the doxycycline-inducible PSMD2-targeting shRNA and another line that expresses green fluorescent protein (GFP) and a doxycycline-inducible control shRNA (FIG. 6A). First, we induced shRNA expression with doxycycline for 48 hours. After recovery, we mixed shPSMD2-RFP and shControl-GFP cells at different ratios (either 1:1, 1:2, 1:5 or 1:10), adding the cells with reduced PSMD2 as the minority subpopulation. Twenty-four hours after plating, we treated these mixed populations of cells for 48 hours with increasing concentrations of bortezomib (5, 7.5 or 10 nM). We allowed the cells to recover in the absence of bortezomib and then we quantified the red and green cells by FACS analysis (FIG. 6A) and captured representative images by fluorescence microscopy (FIG. 6B).
The experiment described in Example 10 was repeated with minor differences using a panel of different proteasome inhibitors: MLN2238, MLN9708, and oprozomib T47D cells harboring a doxycycline inducible control shRNA (GFP) or a doxycycline-inducible PSMD2 shRNA (TurboRFP) were incubated with doxycycline for 3 days. Cells were collected, counted, and plated at a 1:10 ratio of TurboRFP-expressing PSMD2 shRNA cells/GFP expression control shRNA cells in the absence of Dox. Proteasome inhibitors were added at the specified concentrations and cells were maintained in culture. Cells were allowed to recover in the absence of the proteasome inhibitor and then analyzed by FACS (FIG. 8B, top) or visualized by microscopy (FIG. 8B, bottom). In the absence of proteasome inhibitors, the initial plating ratio of these cells (1:10) was maintained over the duration of the experiment (FIG. 8B). […] The effect was concentration-dependent in that higher concentrations elicited more substantial shifts.
cells were trypsinized in 100 μL Accumax® solution and further diluted into 100 μl PBSx1. The number of cells with red or green fluorescent proteins was measured by MACSQuant® VYB according to manufactures protocol. Images of RFP and GFP were created by overlaying images using Fiji software.

T47D cells [4] = assay: CellTiter-Glo viability of PSMD2 KD versus control T47D cells with BCL2 family inhibitors; type: cell-based, human
Method: Cell viability was measured by CellTiter-Glo® Luminescent Cell Viability Assay 72 hours after addition of the compounds to cells.

IMR32 and Kelly cells [5] = assay: CellTiter-Glo viability of IMR32 and Kelly neuroblastoma cells; type: cell-based; settings: 72 hours; remark: listed apart in the source
T47D cells [6] = assay: Cell viability of T47D cells with doxycycline-inducible PSMD2 shRNA; type: cell-based, human; settings: for resistance of cells harboring the PSMD2 shRNA versus parental line (EC50): doxycycline 3 days, 96 hour culture
Method: T47D cells harboring a doxycycline inducible control shRNA (GFP) or a doxycycline-inducible PSMD2 shRNA (TurboRFP) were incubated with doxycycline for 3 days. Cells were then split and grown in the absence of Dox and proteasome inhibitors were then added at various concentrations. Cells were maintained in culture and then counted.
For the generation of the T47D Tet-inducible PSMD2 knockdown cell line—the TRIPZ vector with an inducible shRNA targeting PSMD2 was purchased from Dharmacon (clone V3THS_403760). It was introduced to the T47D cells according to manufactures protocol and cells were selected with puromycin 1 μg/ml for one week. The cells were exposed to doxycycline for 24 hours and cells were FACS sorted for the top 10% of most RFP expressing cells (highest expression of shRNA). The cells were further cultured in the absence of doxycycline and PSMD2 knockdown was induced as specified in the relevant Examples.
Relative cell growth and survival were measured in 96-well microplate format in the shRNA experiments and in 384 well format in the drug toxicity assays, by using the fluorescent detection of resazurin dye reduction as an endpoint (544 nm excitation and 590 nm emission). 2,500 cells in 96 wells format or 1,000 cells in 384 well format were plated 24 hours before compound exposure (for 72 hours or indicated time). Each analysis was performed at least with three replicas.

Saccharomyces cerevisiae = assay: Yeast DAmP strains MG132 sensitivity assay; type: cell-based; settings: 50 μM MG132, 48 hours
Text: Additionally, because the essential role of the proteasome in maintaining protein homeostasis is conserved across all eukaryotes (Hilt and Wolf, 1995), we asked whether reducing expression of 19S subunits confers resistance to proteasome inhibitors in an evolutionary distant organism—the yeast Saccharomyces cerevisiae. As the 19S regulatory complex components are essential for viability in yeast, we utilized a library of hypomorphic (DAmP) alleles for essential yeast genes. In this library, the expression of individual mRNA species is reduced from two to ten-fold by replacing the mRNA's 3′ untranslated region (Breslow et al., 2008).
Yeast cells were grown over night in media containing L-proline as nitrogen source instead of ammonium sulfate. […] OD was measured over the period of 48 hours.

Compound	selective effect on viability, PSMD2 KD versus control cells (log2 (shPSMD2/Control)) (T47D cells [1])	sensitivity of IMR32 cells versus Kelly cells (IMR32 and Kelly cells [2])	shift of surviving cell populations towards PSMD2 shRNA cells (T47D cells [3])	resistance of cells harboring the PSMD2 shRNA versus parental line (EC50) (T47D cells [6])	further results
CCN(CC)C(=S)SSC(=S)N(CC)CC [disulfiram, tetraethylthiuram disulfide]	selectively inhibit growth of T47D cancer cells that have a reduced level of PSMD2; also recorded: selectively reduce the viability of PSMD2 KD cells versus control cells	dramatically more sensitive			
CC(C)C[C@H](NC(=O)CNC(=O)c1cc(Cl)ccc1Cl)B(O)O [MLN2238, ixazomib]	selectively reduce viability of control cells versus PSMD2 KD cells		substantially shifted the populations of surviving cells		
CN(NC(=O)CC(=O)NN(C)C(=S)c1ccccc1)C(=S)c1ccccc1 [elesclomol]	selectively inhibit growth of T47D cancer cells that have a reduced level of PSMD2; also recorded: selectively reduce the viability of PSMD2 KD cells versus control cells	dramatically more sensitive			
CC1(C)CCC(c2ccc(Cl)cc2)=C(CN2CCN(c3ccc(C(=O)NS(=O)(=O)c4ccc(N[C@H](CCN5CCOCC5)CSc5ccccc5)c(S(=O)(=O)C(F)(F)F)c4)cc3)CC2)C1 [ABT-263, navitoclax]	selectively inhibits growth of T47D cancer cells that have a reduced level of PSMD2; also recorded: selectively reduce the viability of PSMD2 KD cells versus control cells	dramatically more sensitive; also recorded: significantly more sensitive			sensitivity of PSMD2 KD cells versus control cells (T47D cells [4]; 72 hours): more sensitive; sensitization by suppression of 19S subunit PSMD2 (T47D cells [4]; doxycycline-induced): not sufficient, however, to induce a profound sensitization; preferential sensitivity of IMR32 versus Kelly cells, compared between BCL2 family inhibitors (IMR32 and Kelly cells [5]): much greater; sensitivity after reintroduction of the PSMD5 subunit (IMR32 and Kelly cells [5]; IMR32 cells): did not significantly alter
CC(C)C[C@H](NC(=O)[C@H](CCc1ccccc1)NC(=O)CN1CCOCC1)C(=O)N[C@@H](Cc1ccccc1)C(=O)N[C@@H](CC(C)C)C(=O)[C@@]1(C)CO1 [carfilzomib]				considerably more resistant	
COc1ccc(-c2ccc3c(N4CCOCC4)nc(N4C[C@@H](C)O[C@@H](C)C4)nc3n2)cc1CO [Ku-0063794]	selectively inhibit growth of T47D cancer cells that have a reduced level of PSMD2; also recorded: selectively reduce the viability of PSMD2 KD cells versus control cells				
CC(C)C[C@@H](C=O)NC(=O)[C@H](CC(C)C)NC(=O)[C@H](CC(C)C)NC(=O)OCc1ccccc1 [MG132, N-(benzyloxycarbonyl)leucinylleucinylleucinal] (Cbz-Leu-Leu-Leu-aldehyde)					resistance upon doxycycline-induced reduction of PSMD2 (T47D cells [6]; PSMD2 shRNA versus control): significantly increased resistance; resistance of 19S subunit DAmP strains to proteasome inhibition (Saccharomyces cerevisiae): five of these twelve strains had significantly increased resistance
Nc1nc(Cl)nc2c1ncn2[C@H]1C[C@H](O)[C@@H](CO)O1 [cladribine, 2-chlorodeoxyadenosine]	selectively inhibit growth of T47D cancer cells that have a reduced level of PSMD2; also recorded: selectively reduce the viability of PSMD2 KD cells versus control cells				
ixazomib citrate [MLN9708]	selectively reduce viability of control cells versus PSMD2 KD cells		substantially shifted the populations of surviving cells	considerably more resistant	
COC[C@H](NC(=O)c1cnc(C)s1)C(=O)N[C@@H](COC)C(=O)N[C@@H](Cc1ccccc1)C(=O)[C@@]1(C)CO1 [oprozomib]			substantially shifted the populations of surviving cells	considerably more resistant	
